Here are results for 2 compounds from publication PMC6480306 (General and comparative endocrinology, 2018).

For the experiment, the target named is T1, zebrafish mPRα (membrane progestin receptor alpha, Paqr7) (Danio rerio, UniProt Q801G2).
T1 sequence (Q801G2 1-354): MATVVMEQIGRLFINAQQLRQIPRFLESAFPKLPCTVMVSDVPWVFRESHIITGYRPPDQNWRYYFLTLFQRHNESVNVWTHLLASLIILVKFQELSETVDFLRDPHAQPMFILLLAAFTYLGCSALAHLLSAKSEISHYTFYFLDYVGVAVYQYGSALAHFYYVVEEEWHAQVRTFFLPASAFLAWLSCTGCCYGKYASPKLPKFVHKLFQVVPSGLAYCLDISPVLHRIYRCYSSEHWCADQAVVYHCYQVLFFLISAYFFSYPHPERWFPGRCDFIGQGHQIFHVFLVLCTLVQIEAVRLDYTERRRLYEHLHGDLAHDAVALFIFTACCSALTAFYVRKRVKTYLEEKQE
Kind of experiment: [3H]-DHP competitive radioligand binding, filtration assay.

pIC50: −log10 of the molar value.

Compound `C=C[C@]12CCC(=O)C=C1CC[C@H]1[C@@H]3CC[C@H](C(C)=O)[C@@]3(C)CC[C@@H]12` [02–0, l0-ethenyl-l9-norprogesterone] showed a pIC50 of 5.70. Under `C[C@@H](O)[C@@]1(O)CC[C@H]2[C@@H]3CCC4=CC(=O)CC[C@]4(C)[C@H]3CC[C@@]21C` [DHP, 17, 20β-dihydroxy-4-pregnen-3-one] stands approximately 7.00.
